Measurements published in US12331035B2, “Bicyclic compound and use thereof” (SK BIOPHARMACEUTICALS CO., LTD., priority 2019, dated 2025).

Each compound was assayed against T1, PRMT5-MEP50 enzyme complex (Homo sapiens, UniProt O14744) (assay: In vitro PRMT5 enzyme activity assay (methylation of histone H4 arginine H4R3, ELISA absorbance at 450 nm)). Conditions: S-adenosylmethionine, histone H4 peptide, 2 hours at room temperature, 8 points 10 μM to 0.128 nM.
T1 construct: purchased BPS Bioscience (USA) 51045
Format: biochemical
Experimental: Method for Measuring Enzyme Activity
In vitro assay: PRMT5-MEP50 enzyme complex, cofactor S-adenosylmethionine (SAM) and histone H4 peptide were reacted in vitro, and methylation of arginine (H4R3) —which is the third amino acid of histone H4—was measured in order to measure the enzyme activity of PRMT5.
Reagents: PRMT5-MEP50 enzyme complex (Catalog No. 51045), blocking buffer (52100-B), histone methyltransferase reaction buffer 2 (4×HMT assay buffer 2, Catalog No. 52170), and primary antibody (primary antibody 4-3, Catalog No. 52150) were purchased from BPS Bioscience (USA). The histone H4 peptide (1-20 amino acids) was custom made by Komabiotech (Korea) and used. S-adenosylmethionine was purchased from NEB (New England Biolabs, USA, Catalog No. B9003S). Plates for coating histone H4 peptide, washing buffer and color development reagent were purchased from the following vendors: Plate (Immobilizer™-Amino Plate, NUNC, Denmark, Catalog No. 436023), carbonate-bicarbonate buffer (Sigma-Aldrich, USA, Catalog No. C3041), washing buffer (10×TBST, Biosesang, Korea, Catalog No. T2005), TMB ELISA substrate (Abcam, UK, Catalog No. ab210902), horseradish peroxidase (HRP)-conjugated antibody (Abcam, UK, Catalog No. ab6721).
Experimental procedure: The histone H4 peptide was diluted with carbonate-bicarbonate buffer and prepared to 100 μg/mL, and then dispensed onto the plate per 100 μL and reacted at 37° C. for 1 hour. PRMT5-MEP50 enzyme complex and S-adenosylmethionine were diluted with histone methyltransferase reaction buffer to prepare 5 μg/mL and 2 μM, respectively, and then 20 μL of PRMT5-MEP50 enzyme complex and 25 μL of S-adenosylmethionine were dispensed onto the plate prepared above. 5 μL of the compound diluted with 10% dimethyl sulfoxide solution was added thereto and reacted at room temperature for 2 hours (final volume=50 μL). The concentration of the compound was diluted 1:5 from 10 μM until the lowest concentration of 0.128 nM, and 8 points were used for the test. After preparing the primary antibody by diluting 1:2000 with blocking buffer, 100 μL was added to the plate and reacted at room temperature for 1 hour. After preparing horseradish peroxidase-conjugated antibody by diluting 1:10,000 with blocking buffer, 100 μL was added to the plate and reacted at room temperature for 1 hour. 100 μL of TMB substrate was added and reacted for 3 minutes at room temperature, and 100 μL of 1 N sulfuric acid was then added to terminate the reaction. Then, the absorbance at 450 nm was measured to calculate the IC50 value of the compound. (+++: 1 to 100 nM, ++: greater than 100 to 1,000 nM, +: greater than 1,000 to 10,000 nM)

T1 sequence (O14744 2-637 limits assumed): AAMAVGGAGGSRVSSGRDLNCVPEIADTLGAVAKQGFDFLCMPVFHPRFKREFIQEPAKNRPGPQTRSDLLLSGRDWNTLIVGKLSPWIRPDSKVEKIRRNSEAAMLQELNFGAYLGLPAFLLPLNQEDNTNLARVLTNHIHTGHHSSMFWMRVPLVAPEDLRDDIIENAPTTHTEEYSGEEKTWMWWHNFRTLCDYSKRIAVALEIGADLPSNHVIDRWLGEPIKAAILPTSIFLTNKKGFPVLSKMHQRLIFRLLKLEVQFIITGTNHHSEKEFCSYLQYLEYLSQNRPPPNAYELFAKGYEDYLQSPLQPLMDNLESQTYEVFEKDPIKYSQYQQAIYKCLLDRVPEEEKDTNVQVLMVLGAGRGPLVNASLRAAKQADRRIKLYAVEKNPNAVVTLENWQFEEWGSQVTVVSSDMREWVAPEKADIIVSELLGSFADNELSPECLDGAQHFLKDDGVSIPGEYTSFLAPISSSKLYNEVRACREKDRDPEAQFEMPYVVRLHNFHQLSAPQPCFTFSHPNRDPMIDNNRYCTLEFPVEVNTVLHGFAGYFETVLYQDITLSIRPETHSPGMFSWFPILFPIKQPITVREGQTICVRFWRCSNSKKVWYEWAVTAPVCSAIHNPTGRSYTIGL
T1 sequence (Q9BQA1 2-342 partner limits assumed): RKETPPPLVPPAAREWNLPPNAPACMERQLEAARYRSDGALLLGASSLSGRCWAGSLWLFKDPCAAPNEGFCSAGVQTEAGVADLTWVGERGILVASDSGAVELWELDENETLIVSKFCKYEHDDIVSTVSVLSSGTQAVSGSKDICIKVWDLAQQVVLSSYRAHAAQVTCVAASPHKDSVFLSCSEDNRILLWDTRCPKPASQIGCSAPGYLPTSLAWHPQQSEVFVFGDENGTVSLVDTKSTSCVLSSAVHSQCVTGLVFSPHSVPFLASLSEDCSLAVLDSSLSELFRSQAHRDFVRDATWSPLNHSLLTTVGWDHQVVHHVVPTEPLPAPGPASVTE

Question: `CN1CCN(c2ccc3c(c2)CCN(C[C@H](O)CN2CCc4ccccc4C2)C3=O)CC1=O` [Example 55, 2-[(2R)-3-(3,4-dihydro-1H-isoquinolin-2-yl)-2-hydroxy-propyl]-6-(4-methyl-3-oxo-piperazin-1-yl)-3,4-dihydroisoquinolin-1-one] was tested. Which IC50 did it give?
Answer: 1 to 100 nM

Question: For `CC(C)(C)OC(=O)N1CC=C(c2ccc3c(c2)CCN(C[C@H](O)CN2CCc4ccccc4C2)C3=O)CC1` [Example 56, tert-butyl 4-[2-[(2R)-3-(3,4-dihydro-1H-isoquinolin-2-yl)-2-hydroxy-propyl]-1-oxo-3,4-dihydroisoquinolin-6-yl]-3,6-dihydro-2H-pyridine-1-carboxylate], which IC50 is on record?
Answer: 1 to 100 nM

Question: With `O=C1c2ccc(C3=CCNCC3)cc2CCN1C[C@H](O)CN1CCc2ccccc2C1` [Example 57, 2-[(2R)-3-(3,4-dihydro-1H-isoquinolin-2-yl)-2-hydroxy-propyl]-6-(1,2,3,6-tetrahydropyridin-4-yl)-3,4-dihydroisoquinolin-1-one] as the compound, how does the IC50 read?
Answer: 1 to 100 nM

Question: For `O=C1c2ccc(N3CCNCC3)cc2CCN1C[C@H](O)CN1CCc2ccccc2C1` [Example 58, 2-[(2R)-3-(3,4-dihydro-1H-isoquinolin-2-yl)-2-hydroxy-propyl]-6-piperazin-1-yl-3,4-dihydroisoquinolin-1-one], which IC50 is on record?
Answer: 1 to 100 nM

Question: `CS(=O)(=O)N1CCN(c2ccc3c(c2)CCN(C[C@H](O)CN2CCc4ccccc4C2)C3=O)CC1` [Example 59, 2-[(2R)-3-(3,4-dihydro-1H-isoquinolin-2-yl)-2-hydroxy-propyl]-6-(4-methylsulfonylpiperazin-1-yl)-3,4-dihydroisoquinolin-1-one] was tested. Which IC50 did it give?
Answer: 100 to 1000 nM

Question: `COC(=O)N1CCN(c2ccc3c(c2)CCN(C[C@H](O)CN2CCc4ccccc4C2)C3=O)CC1` [Example 60, methyl 4-[2-[(2R)-3-(3,4-dihydro-1H-isoquinolin-2-yl)-2-hydroxy-propyl]-1-oxo-3,4-dihydroisoquinolin-6-yl]piperazine-1-carboxylate] was tested. Which IC50 did it give?
Answer: 100 to 1000 nM

Question: With `CC(=O)N1CC=C(c2ccc3c(c2)CCN(C[C@H](O)CN2CCc4ccccc4C2)C3=O)CC1` [Example 61, 6-(1-acetyl-3,6-dihydro-2H-pyridin-4-yl)-2-[(2R)-3-(3,4-dihydro-1H-isoquinolin-2-yl)-2-hydroxy-propyl]-3,4-dihydroisoquinolin-1-one] as the compound, how does the IC50 read?
Answer: 1 to 100 nM

Question: For `O=C1c2ccc(N3CCN(C(=O)C(F)(F)F)CC3)cc2CCN1C[C@H](O)CN1CCc2ccccc2C1` [Example 62, 2-[(2R)-3-(3,4-dihydro-1H-isoquinolin-2-yl)-2-hydroxy-propyl]-6-[4-(2,2,2-trifluoroacetyl)piperazin-1-yl]-3,4-dihydroisoquinolin-1-one], which IC50 is on record?
Answer: 1 to 100 nM

Question: Which IC50 does the source give for `CC(C)(C)OC(=O)N1CCC(c2ccc3c(c2)CCN(C[C@H](O)CN2CCc4ccccc4C2)C3=O)CC1` [Example 63, tert-butyl 4-[2-[(2R)-3-(3,4-dihydro-1H-isoquinolin-2-yl)-2-hydroxy-propyl]-1-oxo-3,4-dihydroisoquinolin-6-yl]piperidine-1-carboxylate] here?
Answer: 100 to 1000 nM

Question: Which IC50 does the source give for `CC(C)N1CCN(c2ccc3c(c2)CCN(C[C@H](O)CN2CCc4ccccc4C2)C3=O)CC1` [Example 64, [(2R)-3-(3,4-dihydro-1H-isoquinolin-2-yl)-2-hydroxy-propyl]-6-(4-isopropylpiperazin-1-yl)-3,4-dihydroisoquinolin-1-one] here?
Answer: 1 to 100 nM

Question: `CCOC(=O)N1CCN(c2ccc3c(c2)CCN(C[C@H](O)CN2CCc4ccccc4C2)C3=O)CC1` [Example 65, ethyl 4-[2-[(2R)-3-(3,4-dihydro-1H-isoquinolin-2-yl)-2-hydroxy-propyl]-1-oxo-3,4-dihydroisoquinolin-6-yl]piperazine-1-carboxylate] was tested. Which IC50 did it give?
Answer: 1000 to 10000 nM

Question: How did the IC50 turn out when `COC1CCN(Cc2ccc3c(c2)CCN(C[C@H](O)CN2CCc4ccccc4C2)C3=O)CC1` [Example 66, 2-[(2R)-3-(3,4-dihydro-1H-isoquinolin-2-yl)-2-hydroxy-propyl]-6-[(4-methoxy-1-piperidyl)methyl]-3,4-dihydroisoquinolin-1-one] was run?
Answer: 1 to 100 nM
